# Measured values from patent publication US20070110758A1, “Method for inhibiting bacterial colonisation” (ADELAIDE RESERCH & INNOVATION PTY LTD, priority 2003, published 2007).
# Tested on: H. pylori
# Test: Level of H. pylori colonisation in gastric body, transitional zone and antrum of inoculated mice, counted on Giemsa stained sections
# Assay type: in vivo, Helicobacter pylori
# Conditions: Example 6; N-acetyl cysteine alone; FIGS. 3, 4
# Experimental: Female C57BL/6 mice, approximately six week old, were orally inoculated with Sydney strain 1 (SS1) of H. pylori (1.0×10^8 bacteria delivered in 0.1 ml of 0.9% (w/v) sodium chloride) according to Lee et al., (1997) Gastroenterology 112:1386-1397 (the entire disclosure of which is incorporated herein by reference) and treated twice daily by oro-gastric gavage for 21 days, starting 4 weeks after inoculation (Scheme 1 below). Animals were housed in the Animal House at the Women's and Children's Hospital. All animals were fed mouse chow and water ad libitum. [drawing 1] […]
# The level of colonisation in the gastric body, transitional zone and antrum of mice inoculated with H. pylori was counted in 9-12 consecutive fields on Giemsa stained sections.
# To assess the effect of the mucolytic agent N-acetyl cysteine […] on colonisation, the level of colonisation in the gastric body, transitional zone and antrum in mice inoculated with H. pylori was counted in 9-12 consecutive fields on Giemsa stained sections.
# The level of colonisation in the gastric body, transitional zone and antrum in mice inoculated with H. pylori was counted in 9-12 consecutive fields on Giemsa stained sections.
# Colonisation (Giemsa staining): The level of colonisation in the gastric body, transitional zone and antrum was counted in 9-12 consecutive fields on stained sections. […]
smiles,measurement,value
"CC(=O)N[C@@H](CS)C(=O)O [NAC, N-acetyl cysteine]",level of colonisation,no effect
